In US20160279108A1, “TARGETED MTOR INHIBITORS” (UNIVERSITY OF KANSAS, priority 2015, published 2016):

Key:
[1] = Pharmacokinetics study in rats; format: in vivo, Sprague-Dawley rats
Protocol: Whole blood was withdrawn (100 μL) from the tail vein at 0 min, 5 min, 30 min, 1 h, 2 h, 4 h, 6 h, 12 h, 24 h and 48 h after dosing and placed in heparinized tubes (BD Vacutainer® Lithium Heparin 37 USP unit, BD Franklin Lakes, N.J.). The whole blood was centrifuged at 15,000×g for 10 min, and the plasma was frozen at −80° C. until analyzed. The animal use statement was approved by the University of Kansas Institutional Animal Care and Use Committee. Plasma samples and stander curves were prepared using a procedure reported previously.

[2] = Tissue distribution in tumor-bearing mice; format: in vivo, BALB/c mice; conditions: for concentration at 12 h: female, BALB/c, mouse, intraperitoneal, 10 mg/kg
Protocol: Drug tissue distribution was determined in female BALB/c mice (n=5). Tissue samples (50 mg) in 500 μL PBS were homogenized using a Tissue Tearor (BioSpec Products, Inc., Bartivesville, Okla.). The homogenized tissue was mixed with 250 μL ZnSO4 and 500 μL methanol. The mixture solution was centrifuged and the supernatant was analyzed by LC/MS.
In the tissue distribution study, BLAB/c mice were administered the drugs 12 h before being euthanized. Major organs (liver, kidneys, hear, spleen, lungs, brain, muscle), tumor and lymph nodes were excised and lightly washed with PBS. The organs were stored at −80° C. until analyzed by LC/MS.

[3] = i.v., rats, own previous studies; cited from earlier work
[4] = mice, 2 mg/kg; cited from earlier work
[5] = cited from earlier work
[6] = Stak (US 20110201639 A1) for tacrolimus; cited from earlier work
[7] = system: 4T1.2neu breast cancer; experiment: Animal survival and tumor suppression study; conditions: for median survival time: 10 mg/kg equivalent rapamycin once per week for 3 weeks, free rapamycin i.p., HA-L-Rapa s.c., control 17 days
[8] = system: MDA-MB-468 cells; conditions: MDA-MB-468 with H-CAM blocking of CD44, p=0.065
Protocol: Breast cancer MDA-MB-468 cells were maintained in Dulbecco's modified eagle medium supplemented with 10% fetal bovine serum (Hyclone Laboratory Inc., Logan, Utah). Cells were plated in white 96-well flat-bottomed plates at the concentration of 5,000 cells/well in 90 μL of growth medium. […] Hanks' solution and 10% trichloroacetic acid (TCA) were used as negative and positive control, respectively. The medium was refreshed 8 h after treatment. After 72 h post-treatment, resazurin blue (5 μM) was added and the resorufin product was measured with a fluorophotometer using an excitation wavelength of 550 nm and an emission wavelength of 590 nm.

[9] = system: MDA-MB-468 cells; conditions: 10 μM
Protocol: Breast cancer cells, MDA-MB-468, were seeded in a 12-well plate at the concentration of 50,000 cells/well in 1 mL of growth medium. After 12 h incubation, 10 μL of human anti-CD44 antibody was added to each well.

[10] = in vivo; cited from earlier work
[11] = female, Sprague-Dawley, rat, plasma, ip, 10 mg/kg

Work on CO[C@H]1C[C@@H]2CC[C@@H](C)[C@@](O)(O2)C(=O)C(=O)N2CCCC[C@H]2C(=O)O[C@H]([C@H](C)C[C@@H]2CC[C@@H](O)[C@H](OC)C2)CC(=O)[C@H](C)/C=C(\C)[C@@H](O)[C@@H](OC)C(=O)[C@H](C)C[C@H](C)/C=C/C=C/C=C/1C [rapamycin] yielded an AUC(0-inf) [1, 11] of 2.36 ± 0.46 µg·h/mL, a Cmax [1, 11] of 0.173 ± 0.0691 µg/mL and a half-life [1, 11] of 10.4 ± 3.76 h. It also gave a Vd ([1]; rats, free rapamycin i.p., HA-L-Rapa s.c., 10 mg/kg equivalent rapamycin, Mean ± SD, n=3) of 37.68 ± 15.49 L/kg, a CI ([1]; rats, free rapamycin i.p., HA-L-Rapa s.c., Mean ± SD, n=3) of 4.23 ± 0.95 L/h/kg and a concentration at 12 h ([2]; brain) of 108 ± 37.4 ng/g. It also gave a concentration at 12 h ([2]; heart) of 441 ± 81.6 ng/g, a concentration at 12 h ([2]; kidneys) of 469 ± 27.3 ng/g and a concentration at 12 h ([2]; liver) of 379 ± 40.6 ng/g. The concentration at 12 h ([2]; lungs) was 618 ± 299 ng/g, the concentration at 12 h ([2]; lymph nodes) was 705 ± 116 ng/g and the concentration at 12 h ([2]; muscle) was 316 ± 154 ng/g. The concentration at 12 h ([2]; spleen) was 183 ± 66.5 ng/g, the Mean concentration of rapamycin in Tumor ([2]; mice, 12 h post 10 mg/kg equivalent rapamycin, i.p. (free rapamycin), s.c. (HA-L-Rapa), Mean ± SD, n=5) was 1240 ± 256 ng/g and the mortality [3] was 40%. For the same molecule, the “skin finding after subcutaneous administration” value [4] was “skin ulceration”, the “findings after i.v. administration” value [5] was “injury (swelling and focal lesion) at the injection site, lymphoid atrophy and periarterial edema in the heart, liver” and the “stability at alkaline pH conditions” value [6] was “degrade rapamycin rapidly in hours or less”. It also gave a median survival time [7] of 15 days.

For C=CC[C@@H]1/C=C(\C)C[C@H](C)C[C@H](OC)[C@H]2O[C@@](O)(C(=O)C(=O)N3CCCC[C@H]3C(=O)O[C@H](/C(C)=C/[C@@H]3CC[C@@H](O)[C@H](OC)C3)[C@H](C)[C@@H](O)CC1=O)[C@H](C)C[C@@H]2OC [tacrolimus], the “stability at alkaline pH conditions” value [6] is given as “stable at alkaline pH conditions for over a week”.

With “HA-Rapamycin-42-(3′-amino-4′-methoxy)benzoate [HA-L-Rapa]” the “cell viability compared to the free drug” value [8] was “no significant difference”, the “rapamycin uptake compared to the free drug” value ([9]; CD44 blocked with H-CAM, p=0.13) was “no difference” and the “drug uptake compared to free rapamycin” value ([9]; CD44 positive cells, p=0.012) was 3.2 times. For the same molecule, the “tumor volume on day 20 compared with the control group” value ([7]; 10 mg/kg equivalent rapamycin) was “significant decrease”, the median survival time [7] was 22 days and the “lung metastases observed at necropsy (animals of group)” value ([7]; 4T1.2neu model, n=5) was 1/5. The “survival compared with control” value ([7]; BALB/c mice with 4T1.2neu breast cancer) was “significantly longer survival”, the “incidence of ulcerated tumor” value ([7]; mammary carcinoma bearing mice) was “diminished the incidence of ulcerated tumor” and the “tumor growth compared to the non-treatment group” value ([7]; mammary carcinoma bearing mice) was “significantly inhibited tumor growth”.

For hyaluronic acid, the turnover half-life [10] is listed as 12 to 72 h.
